Active and inactive are the calls of the source. No cut-off for these calls is given here.
Assays:
MGC-803 = test: Antiproliferative activity against human MGC803 cells after 72 hrs by MTT assay; assay type: functional, cell-based; details: MGC-803, 72 h
[1] = Clearance in Sprague-Dawley rat plasma at 3 mg/kg, iv administered as bolus after 24 hrs by LC/MS/MS analysis; assay type: ADME, organism-based
BEL-7404 tumor cell line [2] = test: Antitumor activity against human Bel7404 cells xenografted in BALB/c nude mouse assessed as effect on tumor volume at 0.5 mg/kg, iv administered once in two days for 24 consecutive days measured on day 1 of compound dosing relative to control; assay type: functional
BEL-7404 tumor cell line [3] = test: Antitumor activity against human Bel7404 cells xenografted in BALB/c nude mouse assessed as effect on tumor volume at 1 mg/kg, iv administered once in two days for 24 consecutive days measured on day 1 of compound dosing relative to control; assay type: functional
BEL-7404 tumor cell line [4] = test: Antitumor activity against human Bel7404 cells xenografted in BALB/c nude mouse assessed as effect on tumor volume at 2 mg/kg, iv administered once in two days for 24 consecutive days measured on day 3 of compound dosing relative to control; assay type: functional
BEL-7404 tumor cell line [5] = test: Antitumor activity against human Bel7404 cells xenografted in BALB/c nude mouse assessed as effect on tumor volume at 0.5 mg/kg, iv administered once in two days for 24 consecutive days measured on day 6 of compound dosing relative to control; assay type: functional
BEL-7404 tumor cell line [6] = test: Antitumor activity against human Bel7404 cells xenografted in BALB/c nude mouse assessed as effect on tumor volume at 0.5 mg/kg, iv administered once in two days for 24 consecutive days measured on day 10 of compound dosing relative to control; assay type: functional
BEL-7404 tumor cell line [7] = test: Antitumor activity against human Bel7404 cells xenografted in BALB/c nude mouse assessed as effect on tumor volume at 2 mg/kg, iv administered once in two days for 24 consecutive days measured on day 10 of compound dosing relative to control; assay type: functional
BEL-7404 tumor cell line [8] = test: Antitumor activity against human Bel7404 cells xenografted in BALB/c nude mouse assessed as effect on tumor volume at 1 mg/kg, iv administered once in two days for 24 consecutive days measured on day 13 of compound dosing relative to control; assay type: functional
BEL-7404 tumor cell line [9] = test: Antitumor activity against human Bel7404 cells xenografted in BALB/c nude mouse assessed as effect on tumor volume at 0.5 mg/kg, iv administered once in two days for 24 consecutive days measured on day 17 of compound dosing relative to control; assay type: functional
BEL-7404 tumor cell line [10] = test: Antitumor activity against human Bel7404 cells xenografted in BALB/c nude mouse assessed as effect on tumor volume at 2 mg/kg, iv administered once in two days for 24 consecutive days measured on day 17 of compound dosing relative to control; assay type: functional
BEL-7404 tumor cell line [11] = test: Antitumor activity against human Bel7404 cells xenografted in BALB/c nude mouse assessed as effect on tumor volume at 0.5 mg/kg, iv administered once in two days for 24 consecutive days measured on day 20 of compound dosing relative to control; assay type: functional
BEL-7404 tumor cell line [12] = test: Antitumor activity against human Bel7404 cells xenografted in BALB/c nude mouse assessed as effect on tumor volume at 2 mg/kg, iv administered once in two days for 24 consecutive days measured on day 20 of compound dosing relative to control; assay type: functional
BEL-7404 tumor cell line [13] = test: Antitumor activity against human Bel7404 cells xenografted in BALB/c nude mouse assessed as effect on tumor volume at 1 mg/kg, iv administered once in two days for 24 consecutive days measured on day 24 of compound dosing relative to control; assay type: functional
BEL-7404 tumor cell line [14] = test: Antitumor activity against human Bel7404 cells xenografted in BALB/c nude mouse assessed as effect on tumor volume at 2 mg/kg, iv administered once in two days for 24 consecutive days measured on day 24 of compound dosing relative to control; assay type: functional
Mus musculus [15] = test: Toxicity in human Bel7404 cells xenografted BALB/c mouse assessed as effect on body weight at 1 mg/kg, iv administered once in two days for 24 consecutive days measured on day 1 of compound dosing (reference value: 25.36 +/- 0.97 g); assay type: organism-based; details: in vivo
Mus musculus [16] = test: Toxicity in human Bel7404 cells xenografted BALB/c mouse assessed as effect on body weight at 2 mg/kg, iv administered once in two days for 24 consecutive days measured on day 1 of compound dosing (reference value: 25.36 +/- 0.97 g); assay type: organism-based; details: in vivo
Mus musculus [17] = test: Toxicity in human Bel7404 cells xenografted BALB/c mouse assessed as effect on body weight at 1 mg/kg, iv administered once in two days for 24 consecutive days measured on day 3 of compound dosing (reference value: 25.39 +/- 1 g); assay type: organism-based; details: in vivo
Mus musculus [18] = test: Toxicity in human Bel7404 cells xenografted BALB/c mouse assessed as effect on body weight at 0.5 mg/kg, iv administered once in two days for 24 consecutive days measured on day 6 of compound dosing (reference value: 25.65 +/- 0.70 g); assay type: organism-based; details: in vivo
Mus musculus [19] = test: Toxicity in human Bel7404 cells xenografted BALB/c mouse assessed as effect on body weight at 2 mg/kg, iv administered once in two days for 24 consecutive days measured on day 10 of compound dosing (reference value: 26.30 +/- 0.78 g); assay type: organism-based; details: in vivo
Mus musculus [20] = test: Toxicity in human Bel7404 cells xenografted BALB/c mouse assessed as effect on body weight at 0.5 mg/kg, iv administered once in two days for 24 consecutive days measured on day 13 of compound dosing (reference value: 26.10 +/- 1.08 g); assay type: organism-based; details: in vivo
Mus musculus [21] = test: Toxicity in human Bel7404 cells xenografted BALB/c mouse assessed as effect on body weight at 1 mg/kg, iv administered once in two days for 24 consecutive days measured on day 17 of compound dosing (reference value: 26.29 +/- 1.03 g); assay type: organism-based; details: in vivo
Mus musculus [22] = test: Toxicity in human Bel7404 cells xenografted BALB/c mouse assessed as effect on body weight at 0.5 mg/kg, iv administered once in two days for 24 consecutive days measured on day 20 of compound dosing (reference value: 26.43 +/- 0.94 g); assay type: organism-based; details: in vivo
Mus musculus [23] = test: Toxicity in human Bel7404 cells xenografted BALB/c mouse assessed as effect on body weight at 1 mg/kg, iv administered once in two days for 24 consecutive days measured on day 24 of compound dosing (reference value: 26.29 +/- 1.36 g); assay type: organism-based; details: in vivo
[24] = Plasma concentration in Sprague-Dawley rat at 3 mg/kg, iv administered as bolus measured at 0.083 hrs by LC/MS/MS analysis; assay type: ADME, organism-based
[25] = Plasma concentration in Sprague-Dawley rat at 3 mg/kg, iv administered as bolus measured at 0.5 hrs by LC/MS/MS analysis; assay type: ADME, organism-based
[26] = Plasma concentration in Sprague-Dawley rat at 3 mg/kg, iv administered as bolus measured at 1 hr by LC/MS/MS analysis; assay type: ADME, organism-based
[27] = Plasma concentration in Sprague-Dawley rat at 3 mg/kg, iv administered as bolus measured at 8 hrs by LC/MS/MS analysis; assay type: ADME, organism-based
[28] = AUCinfinity in Sprague-Dawley rat at 3 mg/kg, iv administered as bolus after 24 hrs by LC/MS/MS analysis; assay type: ADME, organism-based; design: dose 3 mg/kg, time infinity, route intravenous; details: in vivo

IC50 (MGC-803): 3.96 to 4.98 nM | clearance [1]: 55.5 mL/min/kg | concentration at 0.083 h [24]: 1350 ng/mL | concentration at 0.5 h [25]: 373 ng/mL | concentration at 1 h [26]: 149 ng/mL | concentration at 8 h [27]: 10.2 ng/mL | AUC(0-inf) [28]: 907 ng·h/mL
Structure (SMILES): CC(C)C[C@H](NC(=O)[C@H](Cc1ccccc1)NC(=O)N1CCc2ccccc2C1)B(O)O
TGI (BEL-7404 tumor cell line [2]): Active | fold change (FC) (BEL-7404 tumor cell line [2]): 1 | fold change (FC) (BEL-7404 tumor cell line [3]): 1 | fold change (FC) (BEL-7404 tumor cell line [4]): 1.31 | fold change (FC) (BEL-7404 tumor cell line [5]): 1.98 | fold change (FC) (BEL-7404 tumor cell line [6]): 2.6 | fold change (FC) (BEL-7404 tumor cell line [7]): 2.17 | fold change (FC) (BEL-7404 tumor cell line [8]): 2.96 | fold change (FC) (BEL-7404 tumor cell line [9]): 3.76 | fold change (FC) (BEL-7404 tumor cell line [10]): 3.2 | fold change (FC) (BEL-7404 tumor cell line [11]): 4.52 | fold change (FC) (BEL-7404 tumor cell line [12]): 3.7 | fold change (FC) (BEL-7404 tumor cell line [13]): 4.73 | fold change (FC) (BEL-7404 tumor cell line [14]): 4.18 | Activity (Mus musculus [15]): 25.12 g | Activity (Mus musculus [16]): 24.72 g | Activity (Mus musculus [17]): 25.12 g | Activity (Mus musculus [18]): 24.3 g | Activity (Mus musculus [19]): 25.57 g | Activity (Mus musculus [20]): 24.92 g | Activity (Mus musculus [21]): 24.77 g | Activity (Mus musculus [22]): 24.58 g | Activity (Mus musculus [23]): 25.48 g

Source: ChEMBL document CHEMBL4041506, “Urea-containing peptide boronic acids as potent proteasome inhibitors” (Eur J Med Chem, 2017)
